Literature values as cited in patent US20210346426A1, “COMPOSITION AND METHOD FOR THE TREATMENT OF COVID-19” (priority 2020, published 2021).

Assays:
blood coagulation [1] = settings: intravenous injection
[2] = after oral administration
blood coagulation [3] = system: blood coagulation
[4] = even at high concentration

| SMILES | coagulation times of the blood (blood coagulation [1]) | excreted unchanged in urine [2] | oxidation of the citrate ion [2] | effect on blood coagulation in vitro (blood coagulation [3]) | Acidity (pKa) pKa2 | effect in contact with skin [4] |
| --- | --- | --- | --- | --- | --- | --- |
| O=C(O)CC(O)(CC(=O)O)C(=O)O [citrate ion] | shortens | less than 1% | rapidly and almost completely oxidized | acts as an anticoagulant |  |  |
| O=C(O)CC(O)(CC(=O)O)C(=O)O [Citric acid, 2-Hydroxypropane-1,2,3-tricarboxylic acid] |  |  |  |  | pKa2 = 4.76 | not injurious |
| O=C([O-])CC(O)(CC(=O)[O-])C(=O)[O-].[Na+].[Na+].[Na+] [sodium citrate, Sodium Citrate] |  |  |  | prevents the blood from coagulation |  |  |
